From patent US20110172296A1, “MODULATION OF TRANSFORMING GROWTH FACTOR-BETA 1 EXPRESSION” (priority 2010, published 2011)
“And” between values parts separate entries of the source, which are not always exact repeats. Identical values can stand only once. In the oligonucleotide strings, read from the 5' end, every base follows the letter of its sugar. An asterisk marks phosphorothioate; unmarked linkages are phosphodiester. Other units and linkages are bracketed, terminal groups are in braces. A string of capitals states the bases alone. e = 2'-O-(2-methoxyethyl) (MOE); [5mC] = 5-methylcytosine; d = 2'-deoxy (DNA)

System: human TGF-beta1 mRNA
Assay: Antisense inhibition of human TGF-beta1 mRNA in HuVEC cells, single 10 nM dose, Lipofectamine 2000 (Example 2)
Type: cell-based
Conditions: for % inhibition: 10 nM oligonucleotide, HuVEC, relative to untreated control cells; for inhibition of a TGF-beta1 mRNA: threshold lists of Oligo IDs, 10 nM
Procedure: Antisense oligonucleotides targeted to a TGF-beta1 nucleic acid were tested for their effects on TGF-beta1 mRNA in vitro. Cultured HuVEC cells at a density of 5,000 cells per well were transfected using Lipofectamine™ 2000 reagent with 10 nM antisense oligonucleotide for 4 hours. After a recovery period of approximately 24 hours, RNA was isolated from the cells and TGF-beta1 mRNA levels were measured by quantitative real-time PCR. TGF-beta1 mRNA levels were adjusted according to total RNA content, as measured by RIBOGREEN®. Results are presented as percent inhibition of TGF-beta1, relative to untreated control cells.
The chimeric antisense oligonucleotides in Tables 1 and 2 were designed as 2-13-5 MOE gapmers. Antisense molecules with this motif targeting TGF-beta1 are unique, and represent a novel chemical structure for an ASO directed against this target. The gapmers are 20 nucleotides in length, wherein the central gap segments are comprised of thirteen 2′-deoxynucleotides and are flanked on the 5′ side by wings comprising two nucleotides each and on the 3′ side by wings comprising five nucleotides each. Each nucleotide in the 5′ wing segment and each nucleotide in the 3′ wing segment has a 2′-MOE modification. The internucleoside linkages throughout each gapmer are phosphorothioate (P═S) linkages. All cytosine residues throughout each gapmer are 5-methylcytosines. “Target start site” indicates the 5′-most nucleotide to which the gapmer is targeted. “Target stop site” indicates the 3′-most nucleotide to which the gapmer is targeted. Each gapmer listed in Table 1 is targeted to SEQ ID NO: 1 (GENBANK Accession No. NM_000660.3). Each gapmer listed in Table 2 is targeted to SEQ ID NO: 2 (GENBANK Accession No. NT 011109.15 truncated from 14103000 to […]).

[1] = gapmers targeted to SEQ ID NO: 1
[2] = gapmers targeted to SEQ ID NO: 2

Row | Substance | % inhibition [1] [%] | inhibition of a TGF-beta1 mRNA | % inhibition [2] [%]
1 | 413975 (antisense eG*e[5mC]*dG*dG*d[5mC]*dA*dA*d[5mC]*dG*dG*dA*dA*dA*dA*dG*eT*e[5mC]*eT*e[5mC]*eA) [compound 413975] | 73 | 60% and 65% and 70% | 
2 | 414009 (antisense eA*eT*d[5mC]*dT*dG*dG*dT*dA*d[5mC]*d[5mC]*dA*dG*dA*dA*dG*eG*eT*eG*eG*eG) [compound 414009] | 80 | 60% and 65% and 70% and 75% and 80% | 
3 | 414011 (antisense e[5mC]*eG*d[5mC]*dG*dA*dT*d[5mC]*dT*dG*dG*dT*dA*d[5mC]*d[5mC]*dA*eG*eA*eA*eG*eG) [compound 414011] | 85 | 60% and 65% and 70% and 75% and 80% and 85% | 
4 | 414084 (antisense eT*e[5mC]*dA*dG*d[5mC]*d[5mC]*d[5mC]*dA*dA*dG*d[5mC]*dA*d[5mC]*dA*dG*e[5mC]*eA*eG*e[5mC]*eA) [compound 414084] |  | 60% and 65% and 70% and 75% | 75
5 | 413974 (antisense eG*eG*d[5mC]*dA*dA*d[5mC]*dG*dG*dA*dA*dA*dA*dG*dT*d[5mC]*eT*e[5mC]*eA*eA*eA) [compound 413974] | 69 | 60% and 65% | 
6 | 414100 (antisense eT*eT*d[5mC]*d[5mC]*dA*d[5mC]*dT*d[5mC]*dA*dA*dT*dG*dA*dA*dT*eG*eG*eA*eA*eA) [compound 414100] |  |  | 48
7 | 413995 (antisense e[5mC]*e[5mC]*d[5mC]*dG*dA*dG*dG*dG*d[5mC]*dT*dG*dG*dT*d[5mC]*d[5mC]*eG*eG*eA*eA*eT) [compound 413995] | 72 | 60% and 65% and 70% | 
8 | 413988 (antisense eA*eA*dG*dT*d[5mC]*d[5mC]*dT*dG*d[5mC]*d[5mC]*dT*d[5mC]*d[5mC]*dT*d[5mC]*eG*e[5mC]*eG*eG*eG) [compound 413988] | 63 | 60% | 
9 | 414068 (antisense eT*e[5mC]*dT*dG*d[5mC]*dA*dA*d[5mC]*dA*dT*d[5mC]*d[5mC]*dA*dA*dA*eA*eT*eA*eG*eT) [compound 414068] |  |  | 53
10 | 414072 (antisense eG*e[5mC]*d[5mC]*dG*dA*dA*dG*dG*dT*dG*dT*dT*dT*dT*d[5mC]*eT*eT*eG*e[5mC]*e[5mC]) [compound 414072] |  |  | 48
11 | 414056 (antisense eT*eT*dA*dT*dA*d[5mC]*d[5mC]*d[5mC]*dG*dT*dT*dT*dA*dA*dT*eA*eG*eA*eT*eG) [compound 414056] |  |  | 41
12 | 414115 (antisense eT*eT*dT*dT*d[5mC]*d[5mC]*dA*dT*dA*dA*dT*dA*dA*dA*dG*eG*eA*eA*eT*eT) [compound 414115] |  |  | 18
13 | 414047 (antisense e[5mC]*e[5mC]*dT*dG*d[5mC]*d[5mC]*d[5mC]*d[5mC]*dT*dT*dG*dG*dT*dG*dG*eA*eA*eG*e[5mC]*eG) [compound 414047] |  |  | 41
14 | 414054 (antisense eT*eG*dA*dA*dG*dT*dT*d[5mC]*dA*dT*dT*d[5mC]*dT*dG*dG*eG*eT*eA*eG*eG) [compound 414054] |  |  | 51
15 | 414101 (antisense eG*eA*d[5mC]*dA*dG*d[5mC]*dA*dA*dG*dA*d[5mC]*d[5mC]*dA*dA*d[5mC]*eA*e[5mC]*e[5mC]*eT*eT) [compound 414101] |  | 60% and 65% and 70% | 70
16 | 414121 (antisense eG*e[5mC]*dA*dA*dT*dG*d[5mC]*dT*dT*dA*dA*dG*dA*d[5mC]*dA*eA*eG*e[5mC]*e[5mC]*eT) [compound 414121] |  | 60% | 62
17 | 414113 (antisense eT*e[5mC]*dT*dG*dG*dG*dA*dA*dA*dA*dA*dG*dA*dG*dT*e[5mC]*e[5mC]*eT*eG*eG) [compound 414113] |  | 60% and 65% and 70% and 75% | 79

Row | Substance | % inhibition [1] [%] | inhibition of a TGF-beta1 mRNA | % inhibition [2] [%]
18 | 414057 (antisense eT*eA*d[5mC]*dA*d[5mC]*dT*dG*dG*dT*d[5mC]*dA*d[5mC]*dT*d[5mC]*dA*eA*eT*e[5mC]*eA*eT) [compound 414057] |  |  | 58
19 | 414098 (antisense eA*eA*dG*dG*dG*dA*dG*dG*dA*dA*dT*dA*dA*dG*dG*eT*e[5mC]*eA*eG*eA) [compound 414098] |  | 60% and 65% and 70% | 70
20 | 414016 (antisense eA*eA*d[5mC]*d[5mC]*dT*dA*dG*dA*dT*dG*dG*dG*d[5mC]*dG*d[5mC]*eG*eA*eT*e[5mC]*eT) [compound 414016] | 78 | 60% and 65% and 70% and 75% | 
21 | 413976 (antisense e[5mC]*eA*dG*d[5mC]*dG*dG*d[5mC]*dA*dA*d[5mC]*dG*dG*dA*dA*dA*eA*eG*eT*e[5mC]*eT) [compound 413976] | 72 | 60% and 65% and 70% | 
22 | 413986 (antisense eG*eT*d[5mC]*d[5mC]*d[5mC]*d[5mC]*dG*d[5mC]*dG*d[5mC]*d[5mC]*dT*d[5mC]*d[5mC]*dG*eG*e[5mC]*eT*e[5mC]*e[5mC]) [compound 413986] | 69 | 60% and 65% | 
23 | 414055 (antisense eA*eT*dT*dA*dG*dT*dT*dT*dT*d[5mC]*d[5mC]*dA*d[5mC]*d[5mC]*d[5mC]*eT*eT*eA*eA*e[5mC]) [compound 414055] |  |  | 53
24 | 414053 (antisense eT*eT*dG*dG*d[5mC]*d[5mC]*d[5mC]*dG*dG*dA*dG*dG*dT*dT*dA*e[5mC]*eT*e[5mC]*eA*eG) [compound 414053] |  |  | 52
25 | 414020 (antisense eG*eG*dA*dG*dG*d[5mC]*d[5mC]*d[5mC]*d[5mC]*dG*d[5mC]*d[5mC]*d[5mC]*d[5mC]*dT*eG*e[5mC]*eA*eG*eG) [compound 414020] | 0 |  | 
26 | 414051 (antisense eG*eT*d[5mC]*dA*dG*dT*dG*dT*dT*dA*dA*dA*dG*dG*dA*eA*e[5mC]*e[5mC]*eT*e[5mC]) [compound 414051] |  |  | 36
27 | 414079 (antisense eG*eT*d[5mC]*dT*dT*dG*dG*dT*dT*dA*dT*d[5mC]*dA*d[5mC]*dT*eA*eT*eG*eT*e[5mC]) [compound 414079] |  | 60% | 62
28 | 413991 (antisense e[5mC]*eG*dG*d[5mC]*dG*dG*d[5mC]*dA*dA*dA*dG*dG*dG*dA*dG*eG*e[5mC]*eG*eG*eT) [compound 413991] | 69 | 60% and 65% | 
29 | 414033 (antisense e[5mC]*eT*d[5mC]*d[5mC]*dA*d[5mC]*d[5mC]*dT*dT*dG*dG*dG*d[5mC]*dT*dT*eG*e[5mC]*eG*eG*e[5mC]) [compound 414033] | 80 | 60% and 65% and 70% and 75% and 80% | 
30 | 414003 (antisense eA*eA*dG*dG*dT*dG*dG*dG*dT*dG*dG*dT*d[5mC]*dT*dT*eG*eA*eA*eT*eA) [compound 414003] | 67 | 60% and 65% | 
31 | 413987 (antisense eA*eG*dG*dT*d[5mC]*d[5mC]*d[5mC]*d[5mC]*dG*d[5mC]*dG*d[5mC]*d[5mC]*dT*d[5mC]*e[5mC]*eG*eG*e[5mC]*eT) [compound 413987] | 71 | 60% and 65% and 70% | 
32 | 414048 (antisense eG*eG*dT*dT*dT*d[5mC]*d[5mC]*d[5mC]*d[5mC]*dA*dG*d[5mC]*d[5mC]*dA*d[5mC]*e[5mC]*e[5mC]*eT*eG*eA) [compound 414048] |  | 60% | 61
33 | 414081 (antisense eG*e[5mC]*dT*dT*dG*dG*dG*dA*d[5mC]*dT*d[5mC]*dA*dG*d[5mC]*dA*eT*eT*eG*eA*e[5mC]) [compound 414081] |  |  | 49
34 | 414070 (antisense eG*eA*d[5mC]*dT*dA*dA*dT*dG*dT*dT*d[5mC]*dT*dA*dT*dA*eA*eA*e[5mC]*e[5mC]*e[5mC]) [compound 414070] |  |  | 54
